Structures are written as SMILES. pIC50: −log10 of the molar value. Where two headings read alike, the source gives them in different places.

In one experiment the test system is MOLM-13 cells. Briefly: MOLM-13 cell proliferation experiment. Format: cell-based. To be noted: Homo sapiens. On the procedure: After 3 days, 5 µL of CellTiter-Glo reagent (Promega, ZG7572) was added to each well, and the plates were kept at room temperature in the dark for 10 minutes. The […] was detected by Spectra max i3 (Molecular Devices). The relative growth rate of the treated cells was compared with that of DMSO control.

Experiment [1] relates to phosphorylation level of intracellular protein kinase (ERK) in MOLM13 cells. Briefly: Phosphorylated protein kinase (p-ERK) cell experiment (AlphaLISA). Format: cell-based. To be noted: Homo sapiens, MOLM-13, MOLM13 cells. On the procedure: The inhibitory activities of the compounds on the phosphorylation level of intracellular protein kinase (ERK) were determined by AlphaLISA method.
Firstly, the cells were treated with the compounds. The compounds to be tested were subjected to 3-fold dilution with 100% DMSO, and a total of 9 different concentration gradients were set. MOLM13 cells were then seeded into 96-well plates at a density of 30,000 cells per well in a volume of 100 µL per well. […] of DMSO or the test compounds with different concentrations was then transferred into each well, setting two duplicates for each concentration, and the final concentration of DMSO was controlled at 0.5%.
Secondly, the cells were lysed. After 2 hours of cell treatment, the medium was removed, and the cells were washed 3 times with phosphate buffered saline. 50 µL of freshly prepared lysis buffer was added to each well, and the plates were shaken and kept at room temperature for 10 minutes.
Thirdly, the phosphorylated extracellular signal-regulated kinase (p-ERK) was detected by AlphaLISA@ SureFire® Ultra™ p-ERK 1/2 (Thr202/Tyr204) kit (Perkin Elmer, ALSU-PERK-A10K). 10 µL of the above lysate was transferred to a 384-well plate (Perkin Elmer, 6005350), and the phosphorylation level of the extracellular signal-regulated kinase of the sample was detected according to the product instructions. The signal was read using AlphaScreen detector on Spectra max i3 (Molecular Devices). The percentage of inhibition (%) was calculated by the following formula: Inhibition percentage(%)=(1−p-ERK signal of compound-treated cells/p-ERK signal of DMSO-treated cells)*100

Another experiment has as its target SHP2^E76A protein (Homo sapiens (Human), UniProt Q06124, E76A). Briefly: SHP2 enzyme activity inhibition experiment. Format: biochemical. The method, boiled down: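 Compounds tested at 10 concentrations in 3-fold serial dilution. IC50 from a four-parameter Hill-slope nonlinear fit of enzyme activity versus concentration.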
[2] abbreviates: MOLM-13, 72 h, MOLM-13 cell proliferation, 3 days, Tables 3.1 and 3.2, read-out: IC50.
Where [3] appears, read: p-ERK, 2 hours of cell treatment, Tables 2.1 and 2.2, read-out: IC50.
The mark [4] stands for this setting: SHP2 enzyme activity, Tables 1.1 and 1.2, read-out: IC50.
[5] abbreviates: MOLM-13, read-out: MOLM-13 cell proliferation IC50.
The mark [6] stands for this setting: Table 4, read-out: SHP2 enzyme activity IC50.

SHP2^E76A protein, sequence (Q06124 whole entry E76A): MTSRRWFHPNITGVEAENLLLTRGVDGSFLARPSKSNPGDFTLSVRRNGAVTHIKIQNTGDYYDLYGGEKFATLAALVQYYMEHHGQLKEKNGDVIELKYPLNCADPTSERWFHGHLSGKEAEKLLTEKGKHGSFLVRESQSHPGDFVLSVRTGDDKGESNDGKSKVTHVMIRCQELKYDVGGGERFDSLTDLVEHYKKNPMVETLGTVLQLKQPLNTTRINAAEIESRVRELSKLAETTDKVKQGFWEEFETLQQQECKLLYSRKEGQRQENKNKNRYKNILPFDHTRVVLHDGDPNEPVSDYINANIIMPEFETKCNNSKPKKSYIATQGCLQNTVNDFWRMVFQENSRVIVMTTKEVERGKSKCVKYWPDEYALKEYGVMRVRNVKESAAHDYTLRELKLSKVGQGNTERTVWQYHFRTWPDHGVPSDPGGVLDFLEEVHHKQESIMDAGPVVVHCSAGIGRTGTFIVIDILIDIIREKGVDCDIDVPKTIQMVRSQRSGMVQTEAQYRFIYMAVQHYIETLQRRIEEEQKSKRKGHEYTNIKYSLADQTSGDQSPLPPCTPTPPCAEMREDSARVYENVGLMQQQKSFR

As to `CC1(N)CCN(c2ncc(Sc3ccnc(N)c3Cl)c3nncn23)CC1` [4-((5-(4-amino-4-methylpiperidin-1-yl)-[1,2,4]triazolo[4,3-c]pyrimidin-8-yl)thio)-3-chloropyridin-2-amine], the figures for the pIC50 (in the experiment with MOLM-13 cells (setting [2]); in experiment [1] (setting [3]); on SHP2^E76A protein (setting [4])) were 5.00 to 6.00, 5.00 to 6.00 and 6.00 to 7.00, respectively.
As to `CC1(CN)CCN(c2ncc(Sc3cccc(Cl)c3Cl)c3nncn23)CC1` [(1-(8-((2,3-dichlorophenyl)thio)-[1,2,4]triazolo[4,3-c]pyrimidin-5-yl)-4-methylpiperidin-4-yl)methanamine], the pIC50 was 5.00 to 6.00 with MOLM-13 cells (setting [2]); 5.87 in the experiment on MOLM-13 cells (setting [5]); 6.77 in experiment [1] (Table 4, read-out: p-ERK IC50); 6.00 to 7.00 in experiment [1] (setting [3]); more than 7.00 on SHP2^E76A protein (setting [4]); 7.40 at SHP2^E76A protein (setting [6]).
For the compound `NCC1CCN(c2ncc(Sc3cccc(Cl)c3Cl)c3nncn23)C1` (stereo not drawn) [(1-(8-((2,3-dichlorophenyl)thio)-[1,2,4]triazolo[4,3-c]pyrimidin-5-yl)pyrrolidin-3-yl)methanamine], the pIC50 with MOLM-13 cells (setting [2]) is 5.00 to 6.00; in experiment [1] (setting [3]) it was 5.00 to 6.00; at SHP2^E76A protein (setting [4]), 6.00 to 7.00.
As for `CC1C[C@@H](N)C2(CCN(c3ncc(Sc4cccc(Cl)c4Cl)c4nncn34)CC2)C1` (stereo partly drawn) [(1R)-8-(8-((2,3-dichlorophenyl)thio)-[1,2,4]triazolo[4,3-c]pyrimidin-5-yl)-3-methyl-8-azaspiro[4.5]decan-1-amine], the pIC50 in the experiment on MOLM-13 cells (setting [2]) is more than 7.00; in the experiment on MOLM-13 cells (setting [5]) it was 7.23; in experiment [1] (Table 4, read-out: p-ERK IC50) it was 7.19; on SHP2^E76A protein (setting [4]), more than 7.00; on SHP2^E76A protein (setting [6]), 8.40.
For `CC1CCC2(CCN(c3ncc(Sc4cccc(Cl)c4Cl)c4nccn34)CC2)[C@@H]1N` (stereo partly drawn) [(1R)-8-(8-((2,3-dichlorophenyl)thio)imidazo[1,2-c]pyrimidin-5-yl)-2-methyl-8-azaspiro[4.5]decan-1-amine], the pIC50 is 6.00 to 7.00 with MOLM-13 cells (setting [2]), 6.00 to 7.00 in experiment [1] (setting [3]) and more than 7.00 at SHP2^E76A protein (setting [4]).
As to `CC1C[C@@H](N)C2(CCN(c3ncc(Sc4cccc(Cl)c4Cl)c4nccn34)CC2)C1` (stereo partly drawn) [(1R)-8-(8-((2,3-dichlorophenyl)thio)imidazo[1,2-c]pyrimidin-5-yl)-3-methyl-8-azaspiro[4.5]decan-1-amine], the pIC50 was 6.00 to 7.00 in the experiment with MOLM-13 cells (setting [2]); 6.85 in the experiment on MOLM-13 cells (setting [5]); 7.28 in experiment [1] (Table 4, read-out: p-ERK IC50); more than 7.00 in experiment [1] (setting [3]); more than 7.00 on SHP2^E76A protein (setting [4]); 7.96 at SHP2^E76A protein (setting [6]).
Take `CC1C[C@@H](N)C2(CCN(c3ncc(Sc4ccnc(Cl)c4Cl)c4nccn34)CC2)C1` (stereo partly drawn) [(1R)-8-(8-((2,3-dichloropyridin-4-yl)thio)imidazo[1,2-c]pyrimidin-5-yl)-3-methyl-8-azaspiro[4.5]decan-1-amine]: the pIC50 in the experiment on MOLM-13 cells (setting [2]) is more than 7.00; in the experiment on MOLM-13 cells (setting [5]) it was 7.55; in experiment [1] (Table 4, read-out: p-ERK IC50) it was 7.47; in experiment [1] (setting [3]) it was more than 7.00; on SHP2^E76A protein (setting [4]), more than 7.00; at SHP2^E76A protein (setting [6]), 8.10.
With `CC1C[C@@H](N)C2(CCN(c3ncc(Sc4ccnc(N)c4Cl)c4nccn34)CC2)C1` (stereo partly drawn) [(1R)-8-(8-((2-amino-3-chloropyridin-4-yl)thio)imidazo[1,2-c]pyrimidin-5-yl)-3-methyl-8-azaspiro[4.5]decan-1-amine], the pIC50 in the experiment with MOLM-13 cells (setting [2]) was more than 7.00; in the experiment with MOLM-13 cells (setting [5]), 7.27; in experiment [1] (Table 4, read-out: p-ERK IC50), 7.23; in experiment [1] (setting [3]), more than 7.00; on SHP2^E76A protein (setting [4]), more than 7.00; at SHP2^E76A protein (setting [6]), 7.49.
For the compound `CC1C[C@@H](N)C2(CCN(c3ncc(Sc4cc(N)nc(Cl)c4Cl)c4nncn34)CC2)C1` (stereo partly drawn) [(1R)-8-(8-((6-amino-2,3-dichloropyridin-4-yl)thio)-[1,2,4]triazolo[4,3-c]pyrimidin-5-yl)-3-methyl-8-azaspiro[4.5]decan-1-amine], the pIC50 with MOLM-13 cells (setting [2]) was more than 7.00; with MOLM-13 cells (setting [5]) it was 7.77; in experiment [1] (Table 4, read-out: p-ERK IC50), 7.33; in experiment [1] (setting [3]) it was more than 7.00; at SHP2^E76A protein (setting [4]), more than 7.00; on SHP2^E76A protein (setting [6]), 8.70.
As for `C[C@@H]1OCC2(CCN(c3ncc(Sc4cccc(Cl)c4Cl)c4nccn34)CC2)[C@@H]1N` [(3S,4S)-8-(8-((2,3-dichlorophenyl)thio)imidazo[1,2-c]pyrimidin-5-yl)-3-methyl-2-oxa-8-azaspiro[4.5]decan-4-amine], the pIC50 in the experiment on MOLM-13 cells (setting [2]) is more than 7.00; in the experiment with MOLM-13 cells (setting [5]), 7.17; in experiment [1] (Table 4, read-out: p-ERK IC50), 6.99; in experiment [1] (setting [3]), 6.00 to 7.00; at SHP2^E76A protein (setting [4]) it was more than 7.00; on SHP2^E76A protein (setting [6]), 8.10.
For `C[C@@H]1OCC2(CCN(c3ncc(Sc4ccnc(Cl)c4Cl)c4nncn34)CC2)[C@@H]1N` [(3S,4S)-8-(8-((2,3-dichloropyridin-4-yl)thio)-[1,2,4]triazolo[4,3-c]pyrimidin-5-yl)-3-methyl-2-oxa-8-azaspiro[4.5]decan-4-amine], the pIC50 in the experiment with MOLM-13 cells (setting [5]) is 6.88; in experiment [1] (Table 4, read-out: p-ERK IC50), 6.79; on SHP2^E76A protein (setting [4]), more than 7.00; at SHP2^E76A protein (setting [6]), 8.30.
Turning to `C[C@@H]1OCC2(CCN(c3ncc(Sc4ccnc(Cl)c4Cl)c4nccn34)CC2)[C@@H]1N` [(3S,4S)-8-(8-((2,3-dichloropyridin-4-yl)thio)imidazo[1,2-c]pyrimidin-5-yl)-3-methyl-2-oxa-8-azaspiro[4.5]decan-4-amine], the pIC50 with MOLM-13 cells (setting [2]) was more than 7.00; in the experiment on MOLM-13 cells (setting [5]), 7.42; in experiment [1] (Table 4, read-out: p-ERK IC50), 7.46; in experiment [1] (setting [3]), more than 7.00; at SHP2^E76A protein (setting [4]) it was more than 7.00; on SHP2^E76A protein (setting [6]), 8.30.
Regarding `C[C@@H]1OCC2(CCN(c3ncc(Sc4ccnc(N)c4Cl)c4nccn34)CC2)[C@@H]1N` [(3S,4S)-8-(8-((2-amino-3-chloropyridin-4-yl)thio)imidazo[1,2-c]pyrimidin-5-yl)-3-methyl-2-oxa-8-azaspiro[4.5]decan-4-amine], the pIC50 with MOLM-13 cells (setting [2]) is more than 7.00; in the experiment on MOLM-13 cells (setting [5]) it was 7.12; in experiment [1] (Table 4, read-out: p-ERK IC50) it was 6.82; in experiment [1] (setting [3]), 6.00 to 7.00; on SHP2^E76A protein (setting [4]) it was more than 7.00; at SHP2^E76A protein (setting [6]) it was 7.70.
As for `C[C@@H]1OCC2(CCN(c3ncc(Sc4cc(N)ncc4Cl)c4nccn34)CC2)[C@@H]1N` [(3S,4S)-8-(8-((2-amino-5-chloro-pyridin-4-yl)thio)imidazo[1,2-c]pyrimidin-5-yl)-3-methyl-2-oxa-8-azaspiro[4.5]decan-4-amine], the pIC50 in the experiment on MOLM-13 cells (setting [5]) was 6.74; in experiment [1] (Table 4, read-out: p-ERK IC50) it was 7.03; in experiment [1] (setting [3]), more than 7.00; on SHP2^E76A protein (setting [6]) it was 7.68.
In the case of `Cc1nccc(Sc2cnc(N3CCC4(CC3)CO[C@@H](C)[C@H]4N)n3cnnc23)c1Cl` [(3S,4S)-8-(8-((3-chloro-2-methylpyridin-4-yl)thio)-[1,2,4]triazolo[4,3-c]pyrimidin-5-yl)-3-methyl-2-oxa-8-azaspiro[4.5]decan-4-amine], the pIC50 in the experiment with MOLM-13 cells (setting [5]) is 6.56; in experiment [1] (Table 4, read-out: p-ERK IC50) it was 6.43; in experiment [1] (setting [3]) it was 6.00 to 7.00; on SHP2^E76A protein (setting [4]) it was more than 7.00; at SHP2^E76A protein (setting [6]), 7.77.
`Cc1nccc(Sc2cnc(N3CCC4(CC3)CO[C@@H](C)[C@H]4N)n3ccnc23)c1Cl` [(3S,4S)-8-(8-((3-chloro-2-methylpyridin-4-yl)thio)imidazo[1,2-c]pyrimidin-5-yl)-3-methyl-2-oxa-8-azaspiro[4.5]decan-4-amine]: the pIC50 is more than 7.00 in the experiment with MOLM-13 cells (setting [2]); 7.30 in the experiment on MOLM-13 cells (setting [5]); 7.72 in experiment [1] (Table 4, read-out: p-ERK IC50); more than 7.00 in experiment [1] (setting [3]); more than 7.00 at SHP2^E76A protein (setting [4]); 7.82 at SHP2^E76A protein (setting [6]).
For the compound `C[C@@H]1OCC2(CCN(c3ncc(Sc4cc(N)nc(Cl)c4Cl)c4nccn34)CC2)[C@@H]1N` [(3S,4S)-8-(8-((6-amino-2,3-dichloropyridin-4-yl)thio)imidazo[1,2-c]pyrimidin-5-yl)-3-methyl-2-oxa-8-azaspiro[4.5]decan-4-amine], the pIC50 in the experiment with MOLM-13 cells (setting [2]) was more than 7.00; with MOLM-13 cells (setting [5]), 7.30; in experiment [1] (Table 4, read-out: p-ERK IC50), 7.33; in experiment [1] (setting [3]), more than 7.00; at SHP2^E76A protein (setting [4]) it was more than 7.00; on SHP2^E76A protein (setting [6]), 8.00.
For the compound `Cc1nc(N)cc(Sc2cnc(N3CCC4(CC3)CO[C@@H](C)[C@H]4N)n3ccnc23)c1Cl` [(3S,4S)-8-(8-((6-amino-3-chloro-2-methyl-pyridin-4-yl)thio)imidazo[1,2-c]pyrimidin-5-yl)-3-methyl-2-oxa-8-azaspiro[4.5]decan-4-amine], the pIC50 with MOLM-13 cells (setting [2]) is more than 7.00; in the experiment with MOLM-13 cells (setting [5]), 7.38; in experiment [1] (Table 4, read-out: p-ERK IC50), 7.37; in experiment [1] (setting [3]), more than 7.00; on SHP2^E76A protein (setting [4]), more than 7.00; on SHP2^E76A protein (setting [6]) it was 7.80.
